Measurements: patent US12384797B2, “Thioeno[3,2-b] pyridin-7-amine compounds for treating familial dysautonomia” (PTC THERAPEUTICS, INC., priority 2019, dated 2025)

Test system: Elongator complex protein 1 (ELP1, also referred to as IKBKAP)
Assay: IKBKAP-HTRF assay (IKBKAP protein in lysates of FD patient-derived fibroblasts)
Format: cell-based, human
Conditions: 48 hours incubation, 7-point concentration curve
Method: The assay is used for the quantitative determination of Elongator complex protein 1 (ELP1, also referred to as IKBKAP) concentration in cell lysates using the HTRF® (Homogeneous Time-Resolved Fluorescence) technology. IKBKAP is detected in a sandwich HTRF assay by use of an anti-IKAP antibody labeled with a donor and an anti-IKAP antibody labeled with an acceptor.
Cells were thawed and incubated in DMEM-10% FBS for 72 hours. Cells were trypsinized, counted, and re-suspended to a concentration of 50,000 cells/mL in DMEM-10% FBS. A 199 μL aliquot of the cell suspensions were plated at 10,000 cells per well in a 96 well microtiter plate and incubated for 3 to 5 hours. […] Test compounds were serially diluted 3.16-fold in 100% DMSO to generate a 7-point concentration curve. A 1 μL aliquot of 200× compound solution was transferred to cell-containing wells, and cells were incubated for 48 hours in a cell culture incubator (37° C., 5% CO2, 100% relative humidity). Triplicate samples were set up for each compound concentration. After 48 hours, the supernatant was removed from the cells and 50 μL of the 1×LB4 lysis buffer, containing protease inhibitors, was added to the cells and incubated with shaking at room temperature for 1 hour. A 36 μL aliquot of this lysate was subsequently transferred to the 384-well plate containing 4 μL of the antibody solution (1:50 dilution of anti IKAP d2 and anti-IKAP K(9+8) in detection buffer). The 384-well plate was then centrifuged for 1 minute to bring the solutions to the bottom of the plate and incubated overnight at 4° C. Fluorescence for each well of the plate at 665 nm and 620 nm was measured was on the EnVision plate reader (Perkin Elmer). The ΔF for each sample is calculated by:
[formula] wherein Signal is the normalized fluorescence for each sample well and Blank is the average normalized average fluorescence for the Blank control wells.
The maximum fold increase (MFI) in IKBKAP protein abundance for compounds of Formula (I) or a form thereof relative to the vehicle control are provided in Table 1. MFI was calculated by dividing the ΔF value for each sample well by the sample ΔF for the vehicle control wells.
The EC2x for IKBKAP protein expression obtained from the 7-point concentration curve generated for each test compound according to the protocol in Biological Example 1 are also provided in Table 1. The term “EC2x for IKBKAP protein expression” is defined as the concentration of test compound that is effective in producing two times the amount of IKBKAP protein in a FD patient cell compared to the amount produced from the DMSO vehicle control.

SMILES	EC2x for IKBKAP protein expression (concentration producing two times the amount of IKBKAP protein vs DMSO vehicle control)	MFI (maximum fold increase in IKBKAP protein abundance relative to the vehicle control)
CC[C@H](N)Cc1sc2c(NCc3cccs3)cc(Cl)nc2c1C [Compound 33, 2-[(2S)-2-aminobutyl]-5-chloro-3-methyl-N-[(thiophen-2-yl)methyl]thieno[3,2-b]pyridin-7-amine]	***** (≤0.005 μM is indicated by five stars (*****))	***** (>4.9 is indicated by five stars (*****))
Cc1c(C[C@H](C)N)sc2c(NCc3ccco3)ccnc12 [Compound 34, 2-[(2S)-2-aminopropyl]-N-[(furan-2-yl)methyl]-3-methylthieno[3,2-b]pyridin-7-amine]	**** (between >0.005 μM and ≤0.02 μM is indicated by four stars (****))	***** (>4.9 is indicated by five stars (*****))
Cc1c(C[C@H](C)N)sc2c(NCc3ccncc3F)cc(Cl)nc12 [Compound 35, 2-[(2S)-2-aminopropyl]-5-chloro-N-[(3-fluoropyridin-4-yl)methyl]-3-methylthieno[3,2-b]pyridin-7-amine]	***** (≤0.005 μM is indicated by five stars (*****))	***** (>4.9 is indicated by five stars (*****))
C[C@H](N)Cc1sc2c(NCc3ccco3)cc(Cl)nc2c1Cl [Compound 36, 2-[(2S)-2-aminopropyl]-3,5-dichloro-N-[(furan-2-yl)methyl]thieno[3,2-b]pyridin-7-amine]	***** (≤0.005 μM is indicated by five stars (*****))	***** (>4.9 is indicated by five stars (*****))
C[C@H](N)Cc1sc2c(NCc3ccco3)cc(Cl)nc2c1Br [Compound 37, 2-[(2S)-2-aminopropyl]-3-bromo-5-chloro-N-[(furan-2-yl)methyl]thieno[3,2-b]pyridin-7-amine]	***** (≤0.005 μM is indicated by five stars (*****))	***** (>4.9 is indicated by five stars (*****))
C[C@H](N)Cc1sc2c(NCc3nccs3)cc(Cl)nc2c1Cl [Compound 38, 2-[(2S)-2-aminopropyl]-3,5-dichloro-N-[(1,3-thiazol-2-yl)methyl]thieno[3,2-b]pyridin-7-amine]	***** (≤0.005 μM is indicated by five stars (*****))	***** (>4.9 is indicated by five stars (*****))
N[C@@H](CO)Cc1sc2c(NCc3ccco3)cc(Cl)nc2c1Cl [Compound 39, (2R)-2-amino-3-(3,5-dichloro-7-{[(furan-2-yl)methyl]amino}thieno[3,2-b]pyridin-2-yl)propan-1-ol]	***** (≤0.005 μM is indicated by five stars (*****))	***** (>4.9 is indicated by five stars (*****))
COC[C@H](N)Cc1sc2c(NCc3ccco3)cc(Cl)nc2c1Cl [Compound 40, 2-[(2R)-2-amino-3-methoxypropyl]-3,5-dichloro-N-[(furan-2-yl)methyl]thieno[3,2-b]pyridin-7-amine]	***** (≤0.005 μM is indicated by five stars (*****))	***** (>4.9 is indicated by five stars (*****))
N[C@@H](CO)Cc1sc2c(NCc3ccco3)cc(Cl)nc2c1Br [Compound 41, (2R)-2-amino-3-(3-bromo-5-chloro-7-{[(furan-2-yl)methyl]amino}thieno[3,2-b]pyridin-2-yl)propan-1-ol]	***** (≤0.005 μM is indicated by five stars (*****))	***** (>4.9 is indicated by five stars (*****))
CN[C@@H](C)Cc1sc2c(NCc3ccco3)cc(Cl)nc2c1C [Compound 42, 5-chloro-N-[(furan-2-yl)methyl]-3-methyl-2-[(2S)-2-(methylamino)propyl]thieno[3,2-b]pyridin-7-amine]	**** (between >0.005 μM and ≤0.02 μM is indicated by four stars (****))	***** (>4.9 is indicated by five stars (*****))
C[C@H](N)Cc1sc2c(NCc3nccs3)cc(Cl)nc2c1Br [Compound 43, 2-[(2S)-2-aminopropyl]-3-bromo-5-chloro-N-[(1,3-thiazol-2-yl)methyl]thieno[3,2-b]pyridin-7-amine]	***** (≤0.005 μM is indicated by five stars (*****))	***** (>4.9 is indicated by five stars (*****))
COC[C@H](N)Cc1sc2c(NCc3ccco3)cc(Cl)nc2c1Br [Compound 44, 2-[(2R)-2-amino-3-methoxypropyl]-3-bromo-5-chloro-N-[(furan-2-yl)methyl]thieno[3,2-b]pyridin-7-amine]	***** (≤0.005 μM is indicated by five stars (*****))	***** (>4.9 is indicated by five stars (*****))
COC[C@H](N)Cc1sc2c(NCc3ccco3)cc(Cl)nc2c1C [Compound 45, 2-[(2R)-2-amino-3-methoxypropyl]-5-chloro-N-[(furan-2-yl)methyl]-3-methylthieno[3,2-b]pyridin-7-amine]	***** (≤0.005 μM is indicated by five stars (*****))	***** (>4.9 is indicated by five stars (*****))
N[C@@H](CF)Cc1sc2c(NCc3ccco3)cc(Cl)nc2c1Br [Compound 46, 2-[(2R)-2-amino-3-fluoropropyl]-3-bromo-5-chloro-N-[(furan-2-yl)methyl]thieno[3,2-b]pyridin-7-amine]	***** (≤0.005 μM is indicated by five stars (*****))	***** (>4.9 is indicated by five stars (*****))
N[C@@H](CCF)Cc1sc2c(NCc3nccs3)cc(Cl)nc2c1Cl [Compound 47, 2-[(2S)-2-amino-4-fluorobutyl]-3,5-dichloro-N-[(1,3-thiazol-2-yl)methyl]thieno[3,2-b]pyridin-7-amine]	***** (≤0.005 μM is indicated by five stars (*****))	***** (>4.9 is indicated by five stars (*****))
N[C@@H](CCO)Cc1sc2c(NCc3nccs3)cc(Cl)nc2c1Cl [Compound 48, (3S)-3-amino-4-(3,5-dichloro-7-{[(1,3-thiazol-2-yl)methyl]amino}thieno[3,2-b]pyridin-2-yl)butan-1-ol]	***** (≤0.005 μM is indicated by five stars (*****))	***** (>4.9 is indicated by five stars (*****))
C[C@H](N)Cc1sc2c(NCc3ccco3)cc(C#N)nc2c1Br [Compound 49, 2-[(2S)-2-aminopropyl]-3-bromo-7-{[(furan-2-yl)methyl]amino}thieno[3,2-b]pyridine-5-carbonitrile]	***** (≤0.005 μM is indicated by five stars (*****))	***** (>4.9 is indicated by five stars (*****))
C[C@H](N)Cc1sc2c(NCc3ccco3)cc(C#N)nc2c1C#N [Compound 50, 2-[(2S)-2-aminopropyl]-7-{[(furan-2-yl)methyl]amino}thieno[3,2-b]pyridine-3,5-dicarbonitrile]	**** (between >0.005 μM and ≤0.02 μM is indicated by four stars (****))	**** (between >3.9 and ≤4.9 is indicated by four stars (****))
C[C@H](N)Cc1sc2c(NCc3ccco3)cc(Cl)nc2c1C1CC1 [Compound 51, 2-[(2S)-2-aminopropyl]-5-chloro-3-cyclopropyl-N-[(furan-2-yl)methyl]thieno[3,2-b]pyridin-7-amine]	***** (≤0.005 μM is indicated by five stars (*****))	***** (>4.9 is indicated by five stars (*****))
